Reference: ChEMBL document CHEMBL5584343, “Cerastecin Inhibition of the Lipooligosaccharide Transporter MsbA to Combat Acinetobacter baumannii: From Screening Impurity to In Vivo Efficacy” (J Med Chem, 2024)
≈ marks a conversion by molar mass, not a printed value.

Columns and labels:
[1] = tested on: Acinetobacter baumannii; assay: Antibacterial activity against Acinetobacter baumannii CLB21655 assessed as bacterial growth inhibition incubated for 18 to 20 hrs by microbroth dilution method; assay type: functional; conditions: time 18-20 hrs
[2] = tested on: Acinetobacter baumannii; assay: Antibacterial activity against Acinetobacter baumannii CLB21655 incubated for 18 to 20 hrs in presence of 10% mouse serum by microbroth dilution method; assay type: functional; conditions: time 18-20 hrs
[3] = tested on: Acinetobacter baumannii; assay: Antibacterial activity against Acinetobacter baumannii CLB21655 incubated for 18 to 20 hrs in presence of 50% human serum by microbroth dilution method; assay type: functional; conditions: time 18-20 hrs
[4] = tested on: Acinetobacter baumannii; assay: Antibacterial activity against Acinetobacter baumannii CLB21655 incubated for 18 to 20 hrs in presence of 50% mouse serum by microbroth dilution method; assay type: functional; conditions: time 18-20 hrs
[5] = tested on: Acinetobacter baumannii; assay: Antibacterial activity against Acinetobacter baumannii ATCC19606 assessed as bacterial growth inhibition incubated for 18 to 20 hrs by microbroth dilution method; assay type: functional; conditions: time 18-20 hrs
[6] = Inhibition of wildtype Acinetobacter baumannii MsbA preincubated for 30 mins followed by ATP addition and measured after 1 hrs by Transcreener ADP2 F1 assay
[7] = Cytotoxicity against GFP fused human MT4 cells cultured under serum free condition for 24 hrs by CellTiter-Glo assay; assay type: toxicity, cell-based; conditions: GFP fused MT4 cells
[8] = tested on: Acinetobacter baumannii; assay: Antibacterial activity against Acinetobacter baumannii ATCC19606 incubated for 18 to 20 hrs in presence of 10% human serum by microbroth dilution method; assay type: functional; conditions: time 18-20 hrs
[9] = tested on: Acinetobacter baumannii; assay: Selectivity ratio of MIC95 for antibacterial activity against Acinetobacter baumannii ATCC19606 in the presence of 10% human serum to MIC95 for antibacterial activity against Acinetobacter baumannii ATCC19606; assay type: functional
[10] = Lipophilicity, logD of compound at pH 7 by HPLC analysis; assay type: physicochemical; conditions: buffer
[11] = tested on: Acinetobacter baumannii; assay: Antibacterial activity against Acinetobacter baumannii ATCC19606 incubated for 18 to 20 hrs in presence of 1% of human serum by microbroth dilution method; assay type: functional; conditions: time 18-20 hrs
[12] = tested on: Acinetobacter baumannii; assay: Selectivity ratio of MIC95 for antibacterial activity against Acinetobacter baumannii ATCC19606 in the presence of 1% human serum to MIC95 for antibacterial activity against Acinetobacter baumannii ATCC19606; assay type: functional
[13] = tested on: Acinetobacter baumannii; assay: Antibacterial activity against wild type Acinetobacter baumannii; assay type: functional

Compound | MIC95 [5] | EC50 [6] | MIC95 [11] | EC50 at 24 h [7] | Selectivity ratio [12] | further results
O=C(O)c1cc(CN2CC(Oc3ccc(NS(=O)(=O)N4CCOC(c5ccc(F)cc5)C4)c(C(=O)O)c3)C2)ccc1NS(=O)(=O)CCCCc1ccc(Cl)cc1 (single isomer, unassigned) | – | – | – | – | – | MIC [1]: 0.049 µM (≈ 0.0407 µg/mL); MIC [2]: 3.12 µM; MIC [3]: 12.5 µM; MIC [4]: 50 µM
O=C(O)c1cc(CN[C@H]2C[C@@H](NCc3ccc(NS(=O)(=O)c4cnn(-c5ccc(Cl)cc5)c4)c(C(=O)O)c3)C2)ccc1NS(=O)(=O)c1cnn(-c2ccc(Cl)cc2)c1 | 0.196 µM (≈ 0.17 µg/mL) | 1290 nM | – | > 42 µM | – | MIC95 [8]: 3.12 µM; Selectivity ratio [9]: 16
CCCCc1ccc(S(=O)(=O)Nc2ccc(NC(=O)Nc3ccc(NS(=O)(=O)c4ccc(CCCC)cc4)c(C(=O)O)c3)cc2C(=O)O)cc1 | 2.21 µM (≈ 1.6 µg/mL) | – | – | – | – | logD [10]: 2.3
CCCCc1ccc(S(=O)(=O)Nc2ccc(NCCCCNc3ccc(NS(=O)(=O)c4ccc(CCCC)cc4)c(C(=O)O)c3)cc2C(=O)O)cc1 | 0.783 µM (≈ 0.588 µg/mL) | 623 nM | 12.5 µM | – | 16 | –
O=C(Nc1sc2c(c1C(=O)O)CCCC2)c1ccc(Cl)cc1 | – | – | – | – | – | MIC [13]: 60 µM (≈ 20.1 µg/mL)
CCCCc1ccc(S(=O)(=O)Nc2ccc(NC(=O)CCC(=O)Nc3ccc(NS(=O)(=O)c4ccc(N5CCOCC5)nc4)c(C(=O)O)c3)cc2C(=O)O)cc1 | 1.56 µM (≈ 1.26 µg/mL) | 188 nM | 25 µM | – | 16 | –
CCCCc1ccc(S(=O)(=O)Nc2ccc(NC(=O)CCC(=O)Nc3ccc(NS(=O)(=O)c4ccc(CCCC)cn4)c(C(=O)O)c3)cc2C(=O)O)nc1 | 25 µM (≈ 19.5 µg/mL) | 1790 nM | 200 µM | – | 8 | –
CCCCc1ccc(S(=O)(=O)Nc2ccc(NC(=O)CCC(=O)Nc3ccc(NS(=O)(=O)c4ccc(CCCC)cc4)c(C(=O)O)c3)cc2O)cc1 | 1.56 µM (≈ 1.17 µg/mL) | 626 nM | 25 µM | – | 16 | –
O=C(O)c1cc(CN2CC(Oc3ccc(NS(=O)(=O)N4CCOC(c5ccc(F)cc5)C4)c(C(=O)O)c3)C2)ccc1NS(=O)(=O)CCCc1ccc(F)cc1 (racemic) | – | – | – | – | – | MIC [1]: 0.098 µM (≈ 0.0785 µg/mL); MIC [2]: 6.25 µM; MIC [3]: 12.5 µM; MIC [4]: > 100 µM

More lines, main results first:

MIC95 [5] | EC50 [6] | MIC95 [11] | Compound | EC50 at 24 h [7] | Selectivity ratio [12] | further results
0.049 µM (≈ 0.0411 µg/mL) | < 10 nM | – | O=C(O)c1cc(CN2CC(Oc3ccc(NS(=O)(=O)c4ccc(-c5ccc(F)cc5)s4)c(C(=O)O)c3)C2)ccc1NS(=O)(=O)c1cnn(-c2ccc(Cl)cc2)c1 | 37 µM | – | MIC95 [8]: 3.12 µM; Selectivity ratio [9]: 64
0.012 µM (≈ 0.00982 µg/mL) | < 10 nM | 3.12 µM | O=C(CCCOc1ccc(NS(=O)(=O)c2ccc(-c3ccccc3)s2)c(C(=O)O)c1)Nc1ccc(NS(=O)(=O)c2ccc(-c3ccccc3)s2)c(C(=O)O)c1 | > 42 µM | 260 | –
2.21 µM (≈ 1.73 µg/mL) | 82 nM | 25 µM | CCCCc1ccc(S(=O)(=O)Nc2ccc(NC(=O)CCC(=O)Nc3ccc(NS(=O)(=O)c4ccc(CCCC)nc4)c(C(=O)O)c3)cc2C(=O)O)cn1 | – | 11 | –
0.012 µM (≈ 0.0106 µg/mL) | < 10 nM | 2.21 µM | O=C(CCCOc1ccc(NS(=O)(=O)c2ccc(-c3ccc(Cl)cc3)s2)c(C(=O)O)c1)Nc1ccc(NS(=O)(=O)c2ccc(-c3ccc(Cl)cc3)s2)c(C(=O)O)c1 | 3.4 µM | 184 | –
0.277 µM (≈ 0.215 µg/mL) | 27 nM | 8.84 µM | CCCCc1ccc(S(=O)(=O)Nc2ccc(NC(=O)/C=C\C(=O)Nc3ccc(NS(=O)(=O)c4ccc(CCCC)cc4)c(C(=O)O)c3)cc2C(=O)O)cc1 | – | 32 | –
0.049 µM (≈ 0.0369 µg/mL) | 5.4 nM | 12.5 µM | CCCCc1ccc(S(=O)(=O)Nc2ccc(OCCCCOc3ccc(NS(=O)(=O)c4ccc(CCCC)cc4)c(C(=O)O)c3)cc2C(=O)O)cc1 | 9.8 µM | 255 | –
